According to patent US20260365670A1, “EGFR INHIBITORS AND USES THEREOF” (DIZAL (JIANGSU) PHARMACEUTICAL CO., LTD., priority 2022, published 2026):
Read-outs that look alike come from different tables or passages of the source.

Tests used:
EGFR (C797S L858R) = biological target: T1, EGFR (C797S L858R) (Homo sapiens, UniProt P00533, C797S/L858R); experiment: Inhibition of EGFR (C797S L858R) biochemical enzymatic activity (HTRF); conditions: EGFR L858-C797S, 1 mM ATP, 1 h, room temperature, read-out: IC50 (nM) @L858-C797S
T1 construct: purchased signalchem
T1 sequence (P00533 25-1210 C797S/L858R): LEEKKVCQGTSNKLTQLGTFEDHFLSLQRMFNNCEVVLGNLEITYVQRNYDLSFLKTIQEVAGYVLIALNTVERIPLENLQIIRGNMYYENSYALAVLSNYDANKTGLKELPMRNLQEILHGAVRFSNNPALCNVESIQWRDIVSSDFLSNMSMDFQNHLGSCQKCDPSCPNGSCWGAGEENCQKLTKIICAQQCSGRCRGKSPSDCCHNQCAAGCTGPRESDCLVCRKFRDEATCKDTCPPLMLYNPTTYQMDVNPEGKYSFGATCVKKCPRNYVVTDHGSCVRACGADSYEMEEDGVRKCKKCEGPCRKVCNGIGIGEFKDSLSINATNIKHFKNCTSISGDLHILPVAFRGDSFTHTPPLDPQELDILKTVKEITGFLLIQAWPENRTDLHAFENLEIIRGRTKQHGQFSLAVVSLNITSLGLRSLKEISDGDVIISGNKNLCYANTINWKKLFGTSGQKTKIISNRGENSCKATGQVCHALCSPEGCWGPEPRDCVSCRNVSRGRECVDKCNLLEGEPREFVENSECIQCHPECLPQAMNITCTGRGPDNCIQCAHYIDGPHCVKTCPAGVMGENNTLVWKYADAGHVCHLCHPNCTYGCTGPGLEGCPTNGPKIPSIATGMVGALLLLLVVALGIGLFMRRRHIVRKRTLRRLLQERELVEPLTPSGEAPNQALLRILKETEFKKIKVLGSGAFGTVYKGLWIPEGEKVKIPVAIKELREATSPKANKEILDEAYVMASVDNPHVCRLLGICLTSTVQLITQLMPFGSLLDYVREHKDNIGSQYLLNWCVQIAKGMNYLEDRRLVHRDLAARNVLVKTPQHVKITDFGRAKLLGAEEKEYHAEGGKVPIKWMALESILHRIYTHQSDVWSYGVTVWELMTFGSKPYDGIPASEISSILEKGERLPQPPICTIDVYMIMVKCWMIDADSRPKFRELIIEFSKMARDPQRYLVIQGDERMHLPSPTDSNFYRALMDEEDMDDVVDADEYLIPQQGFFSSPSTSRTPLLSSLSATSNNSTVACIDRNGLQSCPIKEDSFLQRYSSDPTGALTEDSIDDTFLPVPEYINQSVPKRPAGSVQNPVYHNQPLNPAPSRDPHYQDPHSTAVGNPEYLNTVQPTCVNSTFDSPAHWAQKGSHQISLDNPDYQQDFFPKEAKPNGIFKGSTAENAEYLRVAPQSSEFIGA
In short: (§1)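 Phosphorylation of TK Substrate-biotin (1 μM) was measured at 1 mM ATP over a 1 h room-temperature incubation with serially varied compound. Detection was by HTRF ratio and analysis by 4PL fit to IC50.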

EGFR wild type = biological target: T2, EGFR wild type (Homo sapiens, UniProt P00533); experiment: Inhibition of EGFR wild type biochemical enzymatic activity (HTRF); conditions: EGFR WT, 1 mM ATP, 1 h, room temperature, read-out: IC50 (nM) @WT
T2 construct: purchased Carna Bio
T2 sequence (P00533 25-1210): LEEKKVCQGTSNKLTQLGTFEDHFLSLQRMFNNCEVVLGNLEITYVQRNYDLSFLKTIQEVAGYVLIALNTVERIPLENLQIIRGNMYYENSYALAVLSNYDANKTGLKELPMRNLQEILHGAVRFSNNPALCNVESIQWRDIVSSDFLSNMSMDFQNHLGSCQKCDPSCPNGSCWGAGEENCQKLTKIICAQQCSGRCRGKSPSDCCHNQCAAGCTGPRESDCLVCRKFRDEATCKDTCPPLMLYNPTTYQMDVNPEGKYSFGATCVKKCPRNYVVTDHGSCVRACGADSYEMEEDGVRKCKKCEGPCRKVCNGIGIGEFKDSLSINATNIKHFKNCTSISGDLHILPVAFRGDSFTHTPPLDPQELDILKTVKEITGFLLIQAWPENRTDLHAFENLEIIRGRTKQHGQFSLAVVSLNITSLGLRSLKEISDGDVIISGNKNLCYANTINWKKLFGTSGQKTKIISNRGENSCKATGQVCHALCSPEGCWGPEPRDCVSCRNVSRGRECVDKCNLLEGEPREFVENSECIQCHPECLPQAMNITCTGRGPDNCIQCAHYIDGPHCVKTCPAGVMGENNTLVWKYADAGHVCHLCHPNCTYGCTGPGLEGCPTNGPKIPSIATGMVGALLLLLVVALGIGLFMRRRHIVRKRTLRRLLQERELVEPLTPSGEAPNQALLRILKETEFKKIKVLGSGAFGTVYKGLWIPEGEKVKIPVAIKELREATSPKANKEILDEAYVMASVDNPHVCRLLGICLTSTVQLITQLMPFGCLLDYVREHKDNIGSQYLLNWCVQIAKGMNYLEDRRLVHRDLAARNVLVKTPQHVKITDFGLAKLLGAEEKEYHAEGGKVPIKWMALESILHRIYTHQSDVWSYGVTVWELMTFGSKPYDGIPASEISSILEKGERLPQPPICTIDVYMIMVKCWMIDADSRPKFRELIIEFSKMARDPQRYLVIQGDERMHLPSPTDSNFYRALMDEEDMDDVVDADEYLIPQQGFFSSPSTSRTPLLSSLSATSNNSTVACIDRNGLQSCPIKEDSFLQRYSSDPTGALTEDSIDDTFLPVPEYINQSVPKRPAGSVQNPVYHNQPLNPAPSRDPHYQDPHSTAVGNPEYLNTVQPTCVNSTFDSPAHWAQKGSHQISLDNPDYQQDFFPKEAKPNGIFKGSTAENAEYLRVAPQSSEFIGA
In short: as §1

PC-9 = experiment: Cell proliferation assay, PC-9 cells (CellTiter-Glo, 72 hours); format: cell-based; conditions: PC9 cells, CellTiter-Glo, read-out: PC9 GI50
In short: (§2)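 GI50 is the concentration giving 50% proliferation inhibition. Growth for this was normalised to a baseline viability reading taken when compound was added, and to DMSO wells. PC-9 (500 cells/well) and mutant-EGFR Ba/F3 (5000 cells/well) are treated after overnight seeding in RPMI1640-based medium.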

EGFR Exon19Del/T790M = biological target: T3, EGFR Exon19Del/T790M (Homo sapiens, UniProt P00533, DEL746-750/T790M); experiment: Inhibition of EGFR Exon19Del/T790M biochemical enzymatic activity (HTRF); conditions: EGFR Del19-T790M, 1 mM ATP, 1 h, room temperature, read-out: IC50 (nM) @Del19-T790M
T3 construct: purchased Carna Bio
T3 sequence (P00533 with tags, fused parts or gaps DEL746-750/T790M limits assumed): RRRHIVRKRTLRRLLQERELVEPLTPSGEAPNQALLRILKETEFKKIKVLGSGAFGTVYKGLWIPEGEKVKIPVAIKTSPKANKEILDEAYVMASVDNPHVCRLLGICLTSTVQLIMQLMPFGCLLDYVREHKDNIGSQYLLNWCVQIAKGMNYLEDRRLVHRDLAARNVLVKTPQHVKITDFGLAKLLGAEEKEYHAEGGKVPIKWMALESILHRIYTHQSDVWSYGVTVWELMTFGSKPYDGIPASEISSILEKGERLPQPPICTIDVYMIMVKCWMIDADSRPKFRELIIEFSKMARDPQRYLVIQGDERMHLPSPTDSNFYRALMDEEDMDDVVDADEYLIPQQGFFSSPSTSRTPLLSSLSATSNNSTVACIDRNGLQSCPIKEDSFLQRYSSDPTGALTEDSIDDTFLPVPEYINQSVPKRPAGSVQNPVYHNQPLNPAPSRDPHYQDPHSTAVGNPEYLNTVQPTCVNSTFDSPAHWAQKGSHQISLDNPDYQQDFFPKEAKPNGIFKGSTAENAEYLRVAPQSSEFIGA
In short: as §1

[1] = biological target: T4, EGFR[T790M/C797S/d746-750] (Homo sapiens, UniProt P00533, C797S/DEL746-750/T790M); experiment: Inhibition of EGFR[T790M/C797S/d746-750] biochemical enzymatic activity (HTRF); conditions: EGFR T790M-C797S-Del19, 1 mM ATP, 1 h, room temperature, read-out: IC50 (nM) @T790M - C797S - Del19
T4 construct: purchased Carna Bio
In short: as §1

A-431 = experiment: Cell proliferation GI50, A-431 cells (Table 6); format: cell-based
[2] = test system: Ba/F3 cells expressing EGFR mutations; experiment: Cell proliferation assay, Ba/F3 cells expressing EGFR mutations (CellTiter-Glo, 72 hours); format: cell-based; conditions: CellTiter-Glo
In short: as §2

EGFR L858R = biological target: T5, EGFR L858R (Homo sapiens, UniProt P00533, L858R); experiment: Inhibition of EGFR L858R biochemical enzymatic activity (HTRF); conditions: 1 mM ATP, 1 h, room temperature, read-out: IC50 (nM) @L858R
T5 construct: purchased Carna Bio
In short: as §1

EGFR[T790M/C797S/L858R] = biological target: T6, EGFR[T790M/C797S/L858R] (Homo sapiens, UniProt P00533, C797S/L858R/T790M); experiment: Inhibition of EGFR[T790M/C797S/L858R] biochemical enzymatic activity (HTRF); conditions: EGFR T790M-C797S-L858R, 1 mM ATP, 1 h, room temperature, read-out: IC50 (nM) @T790M- C797S - L858R
T6 construct: purchased Carna Bio
T6 sequence (P00533 25-1210 T790M/C797S/L858R): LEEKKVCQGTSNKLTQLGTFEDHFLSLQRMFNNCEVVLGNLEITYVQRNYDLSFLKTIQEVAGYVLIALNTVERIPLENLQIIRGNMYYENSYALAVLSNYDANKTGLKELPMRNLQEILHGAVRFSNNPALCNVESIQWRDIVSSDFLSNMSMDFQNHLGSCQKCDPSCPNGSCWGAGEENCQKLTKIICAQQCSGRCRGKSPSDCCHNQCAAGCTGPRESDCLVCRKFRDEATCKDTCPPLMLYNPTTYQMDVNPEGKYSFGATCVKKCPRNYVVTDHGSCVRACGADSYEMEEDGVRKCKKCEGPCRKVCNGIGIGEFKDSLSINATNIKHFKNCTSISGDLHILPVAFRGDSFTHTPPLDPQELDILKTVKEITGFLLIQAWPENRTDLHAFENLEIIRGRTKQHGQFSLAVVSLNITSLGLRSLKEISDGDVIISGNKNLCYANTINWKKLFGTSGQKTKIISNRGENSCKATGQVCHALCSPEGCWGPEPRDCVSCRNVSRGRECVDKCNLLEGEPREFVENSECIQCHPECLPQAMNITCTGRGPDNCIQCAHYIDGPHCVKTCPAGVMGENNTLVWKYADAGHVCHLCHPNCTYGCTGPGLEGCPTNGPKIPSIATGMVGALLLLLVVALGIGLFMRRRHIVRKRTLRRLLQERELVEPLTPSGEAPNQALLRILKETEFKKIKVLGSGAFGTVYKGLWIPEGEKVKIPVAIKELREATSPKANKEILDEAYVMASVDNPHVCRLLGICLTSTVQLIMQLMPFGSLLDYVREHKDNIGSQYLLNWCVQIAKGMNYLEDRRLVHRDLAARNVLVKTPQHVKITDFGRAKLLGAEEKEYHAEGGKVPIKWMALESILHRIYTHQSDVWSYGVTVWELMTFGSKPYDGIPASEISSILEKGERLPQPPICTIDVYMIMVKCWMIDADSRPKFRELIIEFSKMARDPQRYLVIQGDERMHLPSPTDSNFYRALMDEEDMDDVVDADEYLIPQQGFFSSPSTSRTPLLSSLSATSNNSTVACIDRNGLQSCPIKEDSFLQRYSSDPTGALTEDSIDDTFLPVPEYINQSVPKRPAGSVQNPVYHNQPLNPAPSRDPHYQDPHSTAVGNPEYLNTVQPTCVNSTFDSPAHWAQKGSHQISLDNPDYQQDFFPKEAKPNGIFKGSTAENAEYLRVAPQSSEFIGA
In short: as §1

EGFR L858R/T790M = biological target: T7, EGFR L858R/T790M (Homo sapiens, UniProt P00533, L858R/T790M); experiment: Inhibition of EGFR L858R/T790M biochemical enzymatic activity (HTRF); conditions: EGFR L858R-T790M, 1 mM ATP, 1 h, room temperature, read-out: IC50 (nM) @L858R-T790M
T7 construct: purchased Carna Bio
In short: as §1

EGFR Exon19Del = biological target: T8, EGFR Exon19Del (Homo sapiens, UniProt P00533, DEL746-750); experiment: Inhibition of EGFR Exon19Del biochemical enzymatic activity (HTRF); conditions: EGFR Del19, 1 mM ATP, 1 h, room temperature, read-out: IC50 @Del19
T8 construct: purchased Carna Bio
In short: as §1

EGFR (d746-750 C797S) = biological target: T9, EGFR (d746-750 C797S) (Homo sapiens, UniProt P00533, C797S/DEL746-750); experiment: Inhibition of EGFR (d746-750 C797S) biochemical enzymatic activity (HTRF); conditions: EGFR Del19-C797S, 1 mM ATP, 1 h, room temperature, read-out: IC50 (nM) @Del19-C797S
T9 construct: purchased signalchem
T9 sequence (P00533 with tags, fused parts or gaps DEL746-750/C797S limits assumed): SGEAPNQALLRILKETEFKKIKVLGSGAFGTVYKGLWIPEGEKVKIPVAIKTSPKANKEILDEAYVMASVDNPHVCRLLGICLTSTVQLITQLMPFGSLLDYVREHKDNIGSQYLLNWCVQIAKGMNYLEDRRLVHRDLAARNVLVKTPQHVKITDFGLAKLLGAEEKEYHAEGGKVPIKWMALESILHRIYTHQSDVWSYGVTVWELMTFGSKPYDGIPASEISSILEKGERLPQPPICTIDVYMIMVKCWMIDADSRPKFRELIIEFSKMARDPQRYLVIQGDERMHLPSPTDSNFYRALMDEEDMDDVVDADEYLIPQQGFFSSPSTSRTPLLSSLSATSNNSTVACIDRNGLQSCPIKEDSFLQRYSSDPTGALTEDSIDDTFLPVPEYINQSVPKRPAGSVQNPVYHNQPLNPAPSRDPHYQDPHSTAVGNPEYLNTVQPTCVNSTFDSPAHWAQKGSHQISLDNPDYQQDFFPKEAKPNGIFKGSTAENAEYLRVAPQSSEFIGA
In short: as §1

[3] = Homo sapiens, A-431, A-431 cells
[4] = Mus musculus, BaF3, 72 h, BaF3 cells, EGFR DEL19-C797S, read-out: DEL19-C797S/BaF3 GI50
[5] = Mus musculus, BaF3, 72 h, BaF3 cells, EGFR DEL19-T790-C797S, read-out: DEL19-T790-C797S/BaF3 GI50
[6] = Mus musculus, BaF3, 72 h, BaF3 cells, EGFR L858R, read-out: L858R/BaF3 GI50
[7] = Mus musculus, BaF3, 72 h, BaF3 cells, EGFR L858R-C797S, read-out: L858R-C797S/BaF3 GI50
[8] = Mus musculus, BaF3, 72 h, BaF3 cells, EGFR L858R-T790-C797S, read-out: L858R-T790-C797S/BaF3 GI50
[9] = Mus musculus, BaF3, 72 h, BaF3 cells, EGFR L858R-T790M, read-out: L858R-T790M/BaF3 GI50
[10] = Mus musculus, BaF3, 72 h, EGFR DEL19-T790M, read-out: DEL19-T790M GI50
[11] = BaF3 cells, EGFR DEL19-C797S, read-out: DEL19-C797S/BaF3 GI50
[12] = BaF3 cells, EGFR DEL19-T790-C797S, read-out: DEL19-T790-C797S/BaF3 GI50
[13] = BaF3 cells, EGFR L858R, read-out: L858R/BaF3 GI50
[14] = BaF3 cells, EGFR L858R-C797S, read-out: L858R-C797S/BaF3 GI50
[15] = BaF3 cells, EGFR L858R-T790-C797S, read-out: L858R-T790-C797S/BaF3 GI50
[16] = BaF3 cells, EGFR L858R-T790M, read-out: L858R-T790M/BaF3 GI50
[17] = EGFR DEL19-T790M, read-out: DEL19-T790M GI50

Row | IC50 (EGFR (C797S L858R)) [nM] | IC50 (EGFR wild type) [nM] | GI50 (PC-9; Homo sapiens, PC-9, 72 h) [nM] | IC50 (EGFR Exon19Del/T790M) [nM] | IC50 [1] [nM] | GI50 (A-431; [3]) [nM] | IC50 (EGFR L858R) [nM] | IC50 (EGFR[T790M/C797S/L858R]) [nM] | IC50 (EGFR L858R/T790M) [nM] | IC50 (EGFR Exon19Del) [nM] | IC50 (EGFR (d746-750 C797S)) [nM] | GI50 (PC-9) [nM] | GI50 (A-431; A-431 cells) [nM] | GI50 [2, 11] [nM] | GI50 [2, 12] [nM] | GI50 [2, 13] [nM] | GI50 [2, 14] [nM] | GI50 [2, 15] [nM] | GI50 [2, 16] [nM] | GI50 [2, 17] [nM] | Compound | further results
1 | 31 | 1830 | 62 | 12 | 12 | 1040 | 94 | 24 | 33 | 13 | 4.7 |  |  |  |  |  |  |  |  |  | C[C@@H]1CCCOc2c(cnn2C)-c2cc(cn(C)c2=O)C(=O)Nc2nc3ccc(N4CCC(N(C)C)C(F)(F)C4)cc3n2C1 (stereo partly drawn) [Example A51] | GI50 [2, 4]: 7.6 nM; GI50 [2, 5]: 35 nM; GI50 [2, 6]: 46 nM; GI50 [2, 7]: 38 nM; GI50 [2, 8]: 36 nM; GI50 [2, 9]: 65 nM; GI50 [2, 10]: 65 nM
2 | > 5000 | > 5000 | 211 | 198 | 316 | 3020 | > 5000 | > 5000 | > 5000 | 264 | 536 |  |  |  |  |  |  |  |  |  | Cn1ncc2c1OCCN1CC3(CCCC1C3)n1c(nc3ccc(N4CCOCC4)cc31)NC(=O)c1cc-2c(=O)n(C)c1 (stereo not drawn) [Example A9, 15,21-Dimethyl-5-(morpholin-4-yl)-23-oxa-2,9,11,15,20,21,26-heptaazaheptacyclo[24.4.1.1^{1,27}.1^{13,17}.0^{2,10}.0^{3,8}.0^{18,22}]tritriaconta-3,5,7,9,13,17(33),18(22),19-octaene-12,16-dione] | GI50 [2, 4]: 55 nM; GI50 [2, 5]: 405 nM; GI50 [2, 6]: 608 nM; GI50 [2, 7]: 515 nM; GI50 [2, 8]: 607 nM; GI50 [2, 9]: 264 nM; GI50 [2, 10]: 364 nM
3 | 15 | 236 | 14 | 3.3 | 3.1 | 232 | 34 | 8.8 | 15 | 4.9 | 3 |  |  |  |  |  |  |  |  |  | C[C@@H]1CCCOc2c(cnn2C)-c2cc(cn(C)c2=O)C(=O)Nc2nc3ccc(N4CC5(CCCN5C)C4)cc3n2C1 [Example A44] | GI50 [2, 4]: 2 nM; GI50 [2, 5]: 14 nM; GI50 [2, 6]: 4.4 nM; GI50 [2, 7]: 7 nM; GI50 [2, 8]: 5.3 nM; GI50 [2, 9]: 27 nM; GI50 [2, 10]: 16 nM
4 | 16 | 288 |  | 12 | 10 |  | 28 | 14 | 22 | 5.5 | 3.2 | 73 | 664 | 5.2 | 24 | 21 | 19 | 17 | 53 | 29 | CCC1CCCOc2c(cnn2C)-c2cc(cn(C)c2=O)C(=O)Nc2nc3ccc(N4CCN(C)CC4)cc3n2C1 (single isomer, unassigned) [Example A16B, 11-Ethyl-5,26-dimethyl-16-(4-methylpiperazin-1-yl)-7-oxa-4,5,13,20,22,26-hexaazapentacyclo[22.3.1.0^{2,6}.0^{13,21}.0^{14,19}]octacosa-1(28),2(6),3,14,16,18,20,24-octaene-23,27-dione] | 
5 | > 5000 | > 5000 |  | > 5000 | > 5000 |  | > 5000 | > 5000 | > 5000 | 477 | 1160 | 611 | 6260 | 57 | 159 | 119 | 100 | 252 | 361 | 163 | CN1CCC2(CC1)CCN(c1ccc3nc4n(c3c1)C13CCC(CN(CCOc5c(cnn5C)-c5cc(cn(C)c5=O)C(=O)N4)C1)C3)C2 (single isomer, unassigned) [Example A88A] | 
6 | 4300 | > 5000 |  | > 5000 | 4860 |  | 2860 | > 5000 | > 5000 | 450 | 503 | 810 | 7930 | 272 | 564 | 536 | 304 | 980 | 942 | 584 | CN1CCCC12CN(c1ccc3nc4n(c3c1)C13CCC(CN(CCOc5c(cnn5C)-c5cc(cn(C)c5=O)C(=O)N4)C1)C3)C2 (single isomer, unassigned) [Example A76A] | 
7 | 9.8 | 196 |  | 3.9 | 3.3 |  | 21 | 4.4 | 4.6 | 3.1 | 2.4 | 29 | 1770 | 0.77 | 13 | 14 | 16 | 31 | 40 | 14 | CN(C)C1CN(c2ccc3nc4n(c3c2)C23CCC(CN(CCOc5c(cnn5C)-c5cc(cn(C)c5=O)C(=O)N4)C2)C3)CC1F (single isomer, unassigned) [Example A84D, 15,21-Dimethyl-5-[4-fluoro-3-(N,N-dimethylamino)pyrrolidinyl]-23-oxa-2,9,11,15,20,21,26-heptaazaheptacyclo[24.4.1.1^{1,28}.1^{13,17}.0^{2,10}.0^{3,8}.0^{18,22}]tritriaconta-3,5,7,9,13,17(33),18(22),19-octaene-12,16-dione] | 
